The record followed here is ChEMBL document CHEMBL4507319 (2021).

The target of assay [1] is Tyrosine-protein kinase Lck (Homo sapiens) (UniProt P06239). In words: Lck(h) Eurofins kinase panel. The following applies: Compound concentration 1.0 uM.
Assay [2] concerns the target T1, Dual specificity mitogen-activated protein kinase kinase 7 (Homo sapiens) (UniProt O14733).
T1 sequence (whole entry): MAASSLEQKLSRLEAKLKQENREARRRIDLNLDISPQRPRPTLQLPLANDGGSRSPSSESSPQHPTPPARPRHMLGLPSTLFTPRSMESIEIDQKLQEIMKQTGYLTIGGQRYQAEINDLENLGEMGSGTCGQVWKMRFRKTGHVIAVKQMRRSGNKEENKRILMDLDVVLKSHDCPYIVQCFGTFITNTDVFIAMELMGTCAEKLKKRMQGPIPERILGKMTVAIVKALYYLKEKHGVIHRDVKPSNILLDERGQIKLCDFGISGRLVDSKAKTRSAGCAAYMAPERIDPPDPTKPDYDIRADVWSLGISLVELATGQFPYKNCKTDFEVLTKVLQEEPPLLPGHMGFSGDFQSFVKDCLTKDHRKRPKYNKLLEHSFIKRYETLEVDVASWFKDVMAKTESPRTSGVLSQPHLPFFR
Description: MKK7beta(h) Eurofins kinase panel. The following applies: Compound concentration 1.0 uM.

In assay [3] the target is T2, Serine/threonine-protein kinase tousled-like 1 (Homo sapiens) (UniProt Q9UKI8).
T2 sequence (whole entry): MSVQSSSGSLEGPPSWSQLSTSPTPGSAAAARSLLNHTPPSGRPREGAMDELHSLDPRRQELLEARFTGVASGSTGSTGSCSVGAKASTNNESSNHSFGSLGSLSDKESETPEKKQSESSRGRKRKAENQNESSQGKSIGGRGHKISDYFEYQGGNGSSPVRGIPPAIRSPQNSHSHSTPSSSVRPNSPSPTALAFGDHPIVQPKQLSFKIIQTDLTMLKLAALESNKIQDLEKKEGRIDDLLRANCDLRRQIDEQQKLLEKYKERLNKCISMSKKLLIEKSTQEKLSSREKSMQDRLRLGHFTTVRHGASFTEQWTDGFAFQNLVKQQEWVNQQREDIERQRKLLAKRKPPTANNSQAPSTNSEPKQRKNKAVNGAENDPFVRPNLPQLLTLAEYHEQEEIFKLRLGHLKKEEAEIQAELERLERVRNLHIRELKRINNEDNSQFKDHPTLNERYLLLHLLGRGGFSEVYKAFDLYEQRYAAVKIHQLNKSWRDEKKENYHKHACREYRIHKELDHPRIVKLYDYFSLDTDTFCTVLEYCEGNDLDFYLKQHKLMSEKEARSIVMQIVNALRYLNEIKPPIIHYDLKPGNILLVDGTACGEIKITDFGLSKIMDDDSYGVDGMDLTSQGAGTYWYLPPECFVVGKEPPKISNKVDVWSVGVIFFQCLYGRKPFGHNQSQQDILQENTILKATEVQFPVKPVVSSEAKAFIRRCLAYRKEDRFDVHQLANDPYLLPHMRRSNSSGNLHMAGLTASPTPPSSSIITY
Description: TLK1(h) Eurofins kinase panel. The note with it: Compound concentration 1.0 uM.

The test system of the next assay is SNU-16. In words: Snu16 cell line Proliferation assay. It counts as functional, Homo sapiens. The note with it: time 3 day.
The target of assay [4] is Ephrin type-A receptor 7 (Homo sapiens) (UniProt Q15375). In words: EphA7(h) Eurofins kinase panel. The following applies: Compound concentration 1.0 uM.
Assay [5] concerns the target T3, Serine/threonine-protein kinase Nek2 (Homo sapiens) (UniProt P51955).
T3 sequence (whole entry): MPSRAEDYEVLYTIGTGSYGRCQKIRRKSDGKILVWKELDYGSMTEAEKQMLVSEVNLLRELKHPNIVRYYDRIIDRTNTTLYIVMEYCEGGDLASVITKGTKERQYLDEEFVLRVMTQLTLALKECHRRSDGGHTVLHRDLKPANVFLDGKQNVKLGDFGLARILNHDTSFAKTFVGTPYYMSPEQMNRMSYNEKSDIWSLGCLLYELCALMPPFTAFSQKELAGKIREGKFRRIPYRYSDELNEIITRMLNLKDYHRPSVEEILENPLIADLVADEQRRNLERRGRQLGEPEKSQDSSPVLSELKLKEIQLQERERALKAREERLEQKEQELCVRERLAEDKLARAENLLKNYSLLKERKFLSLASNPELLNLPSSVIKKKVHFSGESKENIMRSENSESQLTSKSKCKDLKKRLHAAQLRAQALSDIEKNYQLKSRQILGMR
In words: NEK2(h) Eurofins kinase panel. The note with it: Compound concentration 1.0 uM.

A further assay concerns SU-DHL10. Description: SU-DHL-10 cell line Proliferation assay. The note with it: time 3 day. It counts as functional, Homo sapiens.
For assay [6], the target named is TRAF2 and NCK-interacting protein kinase (Homo sapiens) (UniProt Q9UKE5). In words: TNIK(h) Eurofins kinase panel. The following applies: Compound concentration 1.0 uM.
Assay [7] has as its target Serine/threonine-protein kinase PAK 4 (Homo sapiens) (UniProt O96013). Description: PAK4(h) Eurofins kinase panel. The note with it: Compound concentration 1.0 uM.
The target of assay [8] is Casein kinase I isoform gamma-3 (Homo sapiens) (UniProt Q9Y6M4). In words: CK1gamma3(h) Eurofins kinase panel. The following applies: Compound concentration 1.0 uM.
For assay [9], the target named is Insulin-like growth factor 1 receptor (Homo sapiens) (UniProt P08069). In words: IGF-1R(h), activated Eurofins kinase panel. The following applies: Compound concentration 1.0 uM.
For a further assay, the system named is Raji. Description: RAJI cell line Proliferation assay. Format: functional, Homo sapiens. The following applies: time 3 day.
In assay [10] the target is Protein kinase C delta type (Homo sapiens) (UniProt Q05655). Description: PKCdelta (h) Eurofins kinase panel. The following applies: Compound concentration 1.0 uM.
In assay [11] the target is T4, Serine/threonine-protein kinase Nek3 (Homo sapiens) (UniProt P51956).
T4 sequence (whole entry): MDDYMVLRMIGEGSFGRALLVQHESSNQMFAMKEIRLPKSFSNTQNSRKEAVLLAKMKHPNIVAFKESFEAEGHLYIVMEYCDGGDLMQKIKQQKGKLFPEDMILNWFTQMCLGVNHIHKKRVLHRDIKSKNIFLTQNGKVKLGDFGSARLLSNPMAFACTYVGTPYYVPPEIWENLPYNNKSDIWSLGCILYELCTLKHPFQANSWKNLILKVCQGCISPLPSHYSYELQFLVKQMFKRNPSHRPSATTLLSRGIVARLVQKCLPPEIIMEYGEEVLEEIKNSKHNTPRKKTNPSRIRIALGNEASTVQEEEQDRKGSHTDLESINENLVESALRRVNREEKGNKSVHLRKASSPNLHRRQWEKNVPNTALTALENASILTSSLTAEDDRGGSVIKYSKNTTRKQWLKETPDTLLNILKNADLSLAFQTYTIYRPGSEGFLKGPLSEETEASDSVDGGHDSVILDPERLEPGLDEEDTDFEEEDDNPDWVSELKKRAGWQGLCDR
Description: NEK3(h) Eurofins kinase panel. The following applies: Compound concentration 1.0 uM.

Assay [12] concerns the target CDK18/Cyclin Y (Homo sapiens) (UniProt Q07002+Q8ND76). Description: CDK18/cyclinY(h) Eurofins kinase panel. It counts as protein-complex assay. The following applies: Compound concentration 1.0 uM.
For assay [13], the target named is Platelet-derived growth factor receptor alpha (Homo sapiens) (UniProt P16234). In words: PDGFRalpha(h) Eurofins kinase panel. The note with it: Compound concentration 1.0 uM.
The target in assay [14] is Death-associated protein kinase 1 (Homo sapiens) (UniProt P53355). Description: DAPK1(h) Eurofins kinase panel. The following applies: Compound concentration 1.0 uM.
For assay [15], the target named is Tyrosine-protein kinase Lck (Homo sapiens) (UniProt P06239). Description: Lck(h) activated Eurofins kinase panel. The following applies: Compound concentration 1.0 uM.
The target of assay [16] is Tyrosine-protein kinase ABL2 (Homo sapiens) (UniProt P42684). In words: Arg(h) Eurofins kinase panel. The note with it: Compound concentration 1.0 uM.
In assay [17] the target is ALK tyrosine kinase receptor (Homo sapiens) (UniProt Q9UM73). In words: ALK(h) Eurofins kinase panel. The following applies: Compound concentration 1.0 uM.

Where only a bound is given, the exact number is not on record here.

Chain of Tyrosine-protein kinase Lck (Homo sapiens) (P06239 2-509 limits assumed): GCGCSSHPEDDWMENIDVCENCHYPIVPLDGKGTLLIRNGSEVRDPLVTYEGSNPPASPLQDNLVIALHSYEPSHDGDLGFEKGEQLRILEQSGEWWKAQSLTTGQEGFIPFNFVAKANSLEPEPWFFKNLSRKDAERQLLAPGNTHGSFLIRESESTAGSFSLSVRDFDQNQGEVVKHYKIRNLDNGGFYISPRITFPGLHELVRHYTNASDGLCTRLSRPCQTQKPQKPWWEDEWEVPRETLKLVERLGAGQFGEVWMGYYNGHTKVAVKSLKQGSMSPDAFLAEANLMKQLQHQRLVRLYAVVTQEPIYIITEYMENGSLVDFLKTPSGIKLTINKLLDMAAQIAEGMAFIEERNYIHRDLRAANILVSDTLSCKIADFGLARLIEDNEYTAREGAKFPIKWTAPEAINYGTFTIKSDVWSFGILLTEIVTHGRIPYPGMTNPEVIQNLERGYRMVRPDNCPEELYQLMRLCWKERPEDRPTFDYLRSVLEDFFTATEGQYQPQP
Chain of ALK tyrosine kinase receptor (Homo sapiens) (Q9UM73 19-1620 limits assumed): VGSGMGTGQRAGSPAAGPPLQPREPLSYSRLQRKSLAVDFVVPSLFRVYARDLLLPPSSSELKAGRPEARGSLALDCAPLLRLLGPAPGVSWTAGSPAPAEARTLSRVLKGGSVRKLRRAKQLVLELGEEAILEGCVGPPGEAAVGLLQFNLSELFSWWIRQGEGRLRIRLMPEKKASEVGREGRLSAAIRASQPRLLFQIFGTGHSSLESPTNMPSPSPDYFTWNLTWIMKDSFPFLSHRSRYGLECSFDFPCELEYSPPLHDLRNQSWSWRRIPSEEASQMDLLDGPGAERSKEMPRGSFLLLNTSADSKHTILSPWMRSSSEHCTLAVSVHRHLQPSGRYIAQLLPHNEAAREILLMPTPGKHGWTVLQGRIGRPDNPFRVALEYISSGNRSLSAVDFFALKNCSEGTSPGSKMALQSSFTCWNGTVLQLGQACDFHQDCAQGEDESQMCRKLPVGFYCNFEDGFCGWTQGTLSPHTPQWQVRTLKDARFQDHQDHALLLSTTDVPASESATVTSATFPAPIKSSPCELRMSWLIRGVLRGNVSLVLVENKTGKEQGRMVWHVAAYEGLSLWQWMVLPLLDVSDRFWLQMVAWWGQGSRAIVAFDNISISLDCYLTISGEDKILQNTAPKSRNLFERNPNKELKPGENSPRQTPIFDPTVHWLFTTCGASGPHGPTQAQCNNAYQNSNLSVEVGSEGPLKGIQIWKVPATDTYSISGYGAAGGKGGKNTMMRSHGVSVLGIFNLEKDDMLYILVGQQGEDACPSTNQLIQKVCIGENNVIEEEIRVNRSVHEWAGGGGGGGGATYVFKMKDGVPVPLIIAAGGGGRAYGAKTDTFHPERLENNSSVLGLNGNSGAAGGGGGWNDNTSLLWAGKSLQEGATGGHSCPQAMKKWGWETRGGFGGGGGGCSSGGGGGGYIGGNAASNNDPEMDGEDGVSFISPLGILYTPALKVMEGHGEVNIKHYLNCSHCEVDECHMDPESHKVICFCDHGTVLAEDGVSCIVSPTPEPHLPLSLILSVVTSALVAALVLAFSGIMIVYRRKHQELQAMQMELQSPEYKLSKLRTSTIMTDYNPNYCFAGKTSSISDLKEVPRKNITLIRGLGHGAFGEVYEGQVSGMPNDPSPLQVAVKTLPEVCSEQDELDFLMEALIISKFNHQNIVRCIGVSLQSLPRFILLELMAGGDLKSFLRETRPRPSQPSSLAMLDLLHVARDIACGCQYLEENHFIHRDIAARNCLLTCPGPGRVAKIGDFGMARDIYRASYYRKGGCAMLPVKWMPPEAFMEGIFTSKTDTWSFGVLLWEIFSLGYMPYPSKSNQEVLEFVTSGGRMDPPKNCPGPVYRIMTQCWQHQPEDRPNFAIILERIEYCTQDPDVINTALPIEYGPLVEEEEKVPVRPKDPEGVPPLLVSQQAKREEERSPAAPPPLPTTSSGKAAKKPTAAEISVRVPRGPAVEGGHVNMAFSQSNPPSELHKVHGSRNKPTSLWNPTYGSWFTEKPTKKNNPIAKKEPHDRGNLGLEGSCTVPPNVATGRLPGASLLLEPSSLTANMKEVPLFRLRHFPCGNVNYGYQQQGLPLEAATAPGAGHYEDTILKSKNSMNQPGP
Chain of Serine/threonine-protein kinase PAK 4 (Homo sapiens) (O96013 whole entry, looked up, canonical isoform): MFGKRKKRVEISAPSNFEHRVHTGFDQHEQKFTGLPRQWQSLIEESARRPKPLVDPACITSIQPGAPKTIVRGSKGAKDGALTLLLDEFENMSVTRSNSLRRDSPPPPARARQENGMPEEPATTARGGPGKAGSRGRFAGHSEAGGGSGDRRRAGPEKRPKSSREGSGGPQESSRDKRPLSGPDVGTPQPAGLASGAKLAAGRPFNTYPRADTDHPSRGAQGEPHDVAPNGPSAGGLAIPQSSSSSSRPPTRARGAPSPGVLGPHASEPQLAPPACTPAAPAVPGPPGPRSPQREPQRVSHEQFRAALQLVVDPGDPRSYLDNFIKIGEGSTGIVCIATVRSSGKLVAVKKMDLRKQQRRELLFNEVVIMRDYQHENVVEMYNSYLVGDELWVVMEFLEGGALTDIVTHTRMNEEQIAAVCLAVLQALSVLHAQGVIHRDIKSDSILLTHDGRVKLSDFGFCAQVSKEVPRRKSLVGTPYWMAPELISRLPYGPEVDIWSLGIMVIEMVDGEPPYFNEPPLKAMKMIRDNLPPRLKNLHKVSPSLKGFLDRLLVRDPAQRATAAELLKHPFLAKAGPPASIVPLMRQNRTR
Chain of Death-associated protein kinase 1 (Homo sapiens) (P53355 whole entry, looked up): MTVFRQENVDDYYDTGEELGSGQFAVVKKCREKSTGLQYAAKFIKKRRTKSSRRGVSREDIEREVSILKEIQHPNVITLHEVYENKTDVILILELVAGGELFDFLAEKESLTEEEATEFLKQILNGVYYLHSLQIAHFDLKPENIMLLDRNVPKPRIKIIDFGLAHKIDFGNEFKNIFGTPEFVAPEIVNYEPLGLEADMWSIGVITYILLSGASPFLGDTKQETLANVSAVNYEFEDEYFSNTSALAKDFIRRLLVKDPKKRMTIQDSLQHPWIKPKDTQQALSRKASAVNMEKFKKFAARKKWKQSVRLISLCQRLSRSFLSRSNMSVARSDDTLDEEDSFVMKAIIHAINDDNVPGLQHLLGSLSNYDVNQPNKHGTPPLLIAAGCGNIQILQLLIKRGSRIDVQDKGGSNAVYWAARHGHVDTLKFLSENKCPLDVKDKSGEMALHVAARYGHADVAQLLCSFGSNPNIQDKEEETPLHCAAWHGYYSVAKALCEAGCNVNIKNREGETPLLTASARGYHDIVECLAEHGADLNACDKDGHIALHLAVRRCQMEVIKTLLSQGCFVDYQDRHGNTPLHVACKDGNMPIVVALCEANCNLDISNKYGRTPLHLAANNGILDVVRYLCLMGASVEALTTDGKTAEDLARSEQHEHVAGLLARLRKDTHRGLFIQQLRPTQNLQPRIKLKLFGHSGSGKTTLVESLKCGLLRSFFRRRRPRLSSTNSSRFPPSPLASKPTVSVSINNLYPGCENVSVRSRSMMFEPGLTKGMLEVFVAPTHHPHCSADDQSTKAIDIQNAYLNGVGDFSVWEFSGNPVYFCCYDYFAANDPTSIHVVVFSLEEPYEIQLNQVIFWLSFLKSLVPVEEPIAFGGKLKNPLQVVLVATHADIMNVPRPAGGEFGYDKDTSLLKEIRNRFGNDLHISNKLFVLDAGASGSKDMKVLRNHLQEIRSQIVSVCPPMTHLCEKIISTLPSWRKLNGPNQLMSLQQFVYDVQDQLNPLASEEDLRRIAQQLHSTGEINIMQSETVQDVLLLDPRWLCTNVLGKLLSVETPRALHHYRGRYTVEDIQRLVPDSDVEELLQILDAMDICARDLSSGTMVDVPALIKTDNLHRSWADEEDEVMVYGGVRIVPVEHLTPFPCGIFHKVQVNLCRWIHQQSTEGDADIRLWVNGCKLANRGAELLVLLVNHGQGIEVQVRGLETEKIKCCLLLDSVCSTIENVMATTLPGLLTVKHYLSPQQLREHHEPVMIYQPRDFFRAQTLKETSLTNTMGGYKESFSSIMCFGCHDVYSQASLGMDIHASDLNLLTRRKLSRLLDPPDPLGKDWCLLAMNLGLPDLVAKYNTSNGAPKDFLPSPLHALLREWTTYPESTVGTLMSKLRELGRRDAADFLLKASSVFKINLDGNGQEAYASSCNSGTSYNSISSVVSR
Chain of Casein kinase I isoform gamma-3 (Homo sapiens) (Q9Y6M4 whole entry, looked up, canonical isoform): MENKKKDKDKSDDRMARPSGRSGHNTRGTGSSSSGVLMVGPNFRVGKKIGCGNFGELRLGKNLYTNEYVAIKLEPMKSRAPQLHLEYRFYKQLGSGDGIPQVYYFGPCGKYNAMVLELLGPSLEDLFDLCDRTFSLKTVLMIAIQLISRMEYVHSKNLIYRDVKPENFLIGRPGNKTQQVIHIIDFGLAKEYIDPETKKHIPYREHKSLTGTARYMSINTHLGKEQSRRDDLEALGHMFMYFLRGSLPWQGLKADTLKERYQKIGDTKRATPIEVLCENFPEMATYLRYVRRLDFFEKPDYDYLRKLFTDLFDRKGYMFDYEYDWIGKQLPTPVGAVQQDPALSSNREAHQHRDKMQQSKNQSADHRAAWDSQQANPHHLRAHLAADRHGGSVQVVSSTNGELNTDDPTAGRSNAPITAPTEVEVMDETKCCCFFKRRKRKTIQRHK

With `CCc1ccccc1C(=O)Nc1n[nH]c2c(C)c(F)c(C3C(C#N)=C(C)N(C)C(C)=C3C#N)cc12` [BAY-3827], the % residual kinase activity in assay [1] is 93%; in assay [2] it was 103%; in [3], 103%; in assay [4], 91%; in assay [5], 91%; in assay [6], 49%. Besides, the % residual kinase activity in [7] was 91%; in assay [8], 105%; in assay [9], 121%; in assay [10], 69%; in assay [11], 102%; in assay [12], 106%. In addition, the % residual kinase activity in assay [13] was 102%; in assay [14], 100%; in [15], 108%; in assay [16], 101%; in assay [17], 103%. Moreover, the “Cell Proliferation IC50” value with SNU-16 was 11.6 µM; with SU-DHL10 it was 12.5 µM; with Raji, more than 33 µM.
